Test results published in ChEMBL document CHEMBL1201862, “PubChem BioAssay data set” (2004).
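All cell lines were grown in 96-well plates and treated with compound for 48 hours. GI50 = concentration required for 50% inhibition of growth.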 The source made the active and inactive calls. Cut-off read from the data, not from the text of the source: active = GI50 up to about 1.1 µM and inactive = higher.

What was measured:
Experiment in all cases: inhibition of tumour cell growth, NCI panel, 48 h
SNB-75 = test system: SNB-75
UACC-257 = test system: UACC-257
HOP-62 = test system: HOP-62
HCT-116 = test system: HCT-116
RXF 393 = test system: RXF 393
A549 = test system: A549
IGROV-1 = test system: IGROV-1
NCI-H522 = test system: NCI-H522
SK-MEL-2 = test system: SK-MEL-2
HT-29 = test system: HT-29
T47D = test system: T47D
786-0 = test system: 786-0
SF-539 = test system: SF-539
NCI-H226 = test system: NCI-H226
U-251 = test system: U-251
SK-MEL-28 = test system: SK-MEL-28
MDA-MB-435 = test system: MDA-MB-435
Malme-3M = test system: Malme-3M
TK-10 = test system: TK-10
Hs-578T = test system: Hs-578T
KM12 = test system: KM12
NCI/ADR-RES = test system: NCI/ADR-RES
SNB-19 = test system: SNB-19
UO-31 = test system: UO-31
PC-3 = test system: PC-3
CAKI-1 = test system: CAKI-1
RPMI-8226 = test system: RPMI-8226
HL-60 = test system: HL-60
SF-268 = test system: SF-268
HCC 2998 = test system: HCC 2998
ACHN = test system: ACHN
SF-295 = test system: SF-295
OVCAR-5 = test system: OVCAR-5
UACC-62 = test system: UACC-62
SN12C = test system: SN12C
DU-145 = test system: DU-145
MOLT-4 = test system: MOLT-4
MCF7 = test system: MCF7
M14 = test system: M14
LOX IMVI = test system: LOX IMVI
OVCAR-8 = test system: OVCAR-8
MDA-MB-231 = test system: MDA-MB-231
HCT-15 = test system: HCT-15
NCI-H460 = test system: NCI-H460
BT-549 = test system: BT-549
NCI-H23 = test system: NCI-H23
MDA-N = test system: MDA-N
OVCAR-3 = test system: OVCAR-3
SR = test system: SR
K562 = test system: K562
SK-MEL-5 = test system: SK-MEL-5
SW-620 = test system: SW-620
CCRF-CEM = test system: CCRF-CEM
HOP-92 = test system: HOP-92
COLO 205 = test system: COLO 205
SK-OV-3 = test system: SK-OV-3
A498 = test system: A498
OVCAR-4 = test system: OVCAR-4
EKVX = test system: EKVX

## Cc1ccc(-c2n[nH]c(=O)n2N2C(=O)c3ccccc3C2=O)cc1
SNB-75
  GI50: > 100 µM (inactive)
UACC-257
  GI50: > 100 µM (inactive)
HOP-62
  GI50: > 100 µM (inactive)
HCT-116
  GI50: > 100 µM (inactive)
RXF 393
  GI50: > 100 µM (inactive)
A549
  GI50: > 100 µM (inactive)
IGROV-1
  GI50: > 100 µM (inactive)
NCI-H522
  GI50: > 100 µM (inactive)
SK-MEL-2
  GI50: > 100 µM (inactive)
HT-29
  GI50: > 100 µM (inactive)
T47D
  GI50: 68.9 µM (inactive)
786-0
  GI50: > 100 µM (inactive)
SF-539
  GI50: > 100 µM (inactive)
NCI-H226
  GI50: > 100 µM (inactive)
U-251
  GI50: > 100 µM (inactive)
SK-MEL-28
  GI50: > 100 µM (inactive)
MDA-MB-435
  GI50: > 100 µM (inactive)
Malme-3M
  GI50: > 100 µM (inactive)
TK-10
  GI50: > 100 µM (inactive)
Hs-578T
  GI50: > 100 µM (inactive)
KM12
  GI50: > 100 µM (inactive)
NCI/ADR-RES
  GI50: > 100 µM (inactive)
SNB-19
  GI50: > 100 µM (inactive)
UO-31
  GI50: > 100 µM (inactive)
PC-3
  GI50: > 100 µM (inactive)
CAKI-1
  GI50: > 100 µM (inactive)
RPMI-8226
  GI50: > 100 µM (inactive)
HL-60
  GI50: > 100 µM (inactive)
SF-268
  GI50: > 100 µM (inactive)
HCC 2998
  GI50: > 100 µM (inactive)
ACHN
  GI50: > 100 µM (inactive)
SF-295
  GI50: > 100 µM (inactive)
OVCAR-5
  GI50: > 100 µM (inactive)
UACC-62
  GI50: > 100 µM (inactive)
SN12C
  GI50: > 100 µM (inactive)
DU-145
  GI50: > 100 µM (inactive)
MOLT-4
  GI50: > 100 µM (inactive)
MCF7
  GI50: > 100 µM (inactive)
M14
  GI50: > 100 µM (inactive)
LOX IMVI
  GI50: > 100 µM (inactive)
OVCAR-8
  GI50: > 100 µM (inactive)
MDA-MB-231
  GI50: > 100 µM (inactive)
HCT-15
  GI50: > 100 µM
NCI-H460
  GI50: > 100 µM (inactive)
BT-549
  GI50: > 100 µM (inactive)
NCI-H23
  GI50: > 100 µM (inactive)
MDA-N
  GI50: > 100 µM (inactive)
OVCAR-3
  GI50: > 100 µM (inactive)
SR
  GI50: > 100 µM (inactive)
K562
  GI50: > 100 µM (inactive)
SK-MEL-5
  GI50: > 100 µM (inactive)
SW-620
  GI50: > 100 µM (inactive)

## O=C1/C(=C/c2cccc(Oc3ccccc3)c2)N=C(c2ccccc2)N1c1nc2ccc(Sc3ccccc3)cc2[nH]1
SNB-75
  GI50: 18.2 µM (inactive)
UACC-257
  GI50: 29.4 µM (inactive)
HOP-62
  GI50: 28.4 µM (inactive)
HCT-116
  GI50: 30.2 µM (inactive)
RXF 393
  GI50: 24.8 µM (inactive)
A549
  GI50: 42.1 µM (inactive)
IGROV-1
  GI50: 46.9 µM (inactive)
NCI-H522
  GI50: 25.2 µM (inactive)
SK-MEL-2
  GI50: 17.3 µM (inactive)
CCRF-CEM
  GI50: 24.6 µM (inactive)
HT-29
  GI50: 23.5 µM (inactive)
T47D
  GI50: 23.6 µM (inactive)
786-0
  GI50: 32.3 µM (inactive)
HOP-92
  GI50: 58.7 µM (inactive)
U-251
  GI50: 27.4 µM (inactive)
SK-MEL-28
  GI50: 41.3 µM (inactive)
MDA-MB-435
  GI50: 15.4 µM (inactive)
Malme-3M
  GI50: 67.8 µM (inactive)
TK-10
  GI50: 25.2 µM (inactive)
Hs-578T
  GI50: 41.3 µM (inactive)
KM12
  GI50: 29.6 µM (inactive)
NCI/ADR-RES
  GI50: 20.5 µM (inactive)
SNB-19
  GI50: 35.5 µM (inactive)
UO-31
  GI50: 50.1 µM (inactive)
PC-3
  GI50: 29.9 µM (inactive)
CAKI-1
  GI50: 36.2 µM (inactive)
RPMI-8226
  GI50: 20.5 µM (inactive)
HL-60
  GI50: 20.4 µM (inactive)
SF-268
  GI50: 37.7 µM (inactive)
HCC 2998
  GI50: 13.3 µM (inactive)
ACHN
  GI50: 54.3 µM (inactive)
SF-295
  GI50: 19.7 µM (inactive)
OVCAR-5
  GI50: 57.8 µM (inactive)
UACC-62
  GI50: 23.2 µM (inactive)
SN12C
  GI50: 20.7 µM (inactive)
DU-145
  GI50: 27.3 µM (inactive)
COLO 205
  GI50: 16.9 µM (inactive)
MOLT-4
  GI50: 33.7 µM (inactive)
MCF7
  GI50: 27.7 µM (inactive)
M14
  GI50: 24.3 µM (inactive)
LOX IMVI
  GI50: 30.9 µM (inactive)
SK-OV-3
  GI50: 25.6 µM (inactive)
OVCAR-8
  GI50: 29.9 µM (inactive)
MDA-MB-231
  GI50: 19.8 µM (inactive)
A498
  GI50: 26.1 µM (inactive)
HCT-15
  GI50: 28 µM
NCI-H460
  GI50: 23 µM (inactive)
BT-549
  GI50: 14.9 µM (inactive)
NCI-H23
  GI50: 12.1 µM (inactive)
MDA-N
  GI50: 16 µM (inactive)
OVCAR-3
  GI50: 15.8 µM (inactive)
OVCAR-4
  GI50: 47.3 µM (inactive)
EKVX
  GI50: 44.1 µM (inactive)
K562
  GI50: 23.7 µM (inactive)
SK-MEL-5
  GI50: 24.4 µM (inactive)
SW-620
  GI50: 29.4 µM (inactive)

## CC(C)OCC1CC(CC(=O)Nc2nncs2)C(=O)O1 (configuration not stated)
SNB-75
  GI50: > 100 µM (inactive)
UACC-257
  GI50: > 100 µM (inactive)
HOP-62
  GI50: > 100 µM (inactive)
HCT-116
  GI50: > 100 µM (inactive)
A549
  GI50: > 100 µM (inactive)
IGROV-1
  GI50: > 100 µM (inactive)
SK-MEL-2
  GI50: > 100 µM (inactive)
CCRF-CEM
  GI50: > 100 µM (inactive)
HT-29
  GI50: > 100 µM (inactive)
T47D
  GI50: > 100 µM (inactive)
786-0
  GI50: > 100 µM (inactive)
SF-539
  GI50: > 100 µM (inactive)
NCI-H226
  GI50: > 100 µM (inactive)
HOP-92
  GI50: > 100 µM (inactive)
U-251
  GI50: > 100 µM (inactive)
SK-MEL-28
  GI50: > 100 µM (inactive)
MDA-MB-435
  GI50: > 100 µM (inactive)
TK-10
  GI50: > 100 µM (inactive)
Hs-578T
  GI50: > 100 µM (inactive)
KM12
  GI50: > 100 µM (inactive)
NCI/ADR-RES
  GI50: > 100 µM (inactive)
SNB-19
  GI50: > 100 µM (inactive)
UO-31
  GI50: > 100 µM (inactive)
PC-3
  GI50: > 100 µM (inactive)
CAKI-1
  GI50: > 100 µM (inactive)
RPMI-8226
  GI50: > 100 µM (inactive)
SF-268
  GI50: > 100 µM (inactive)
HCC 2998
  GI50: > 100 µM (inactive)
ACHN
  GI50: > 100 µM (inactive)
SF-295
  GI50: > 100 µM (inactive)
OVCAR-5
  GI50: > 100 µM (inactive)
UACC-62
  GI50: > 100 µM (inactive)
SN12C
  GI50: > 100 µM (inactive)
DU-145
  GI50: > 100 µM (inactive)
COLO 205
  GI50: > 100 µM (inactive)
MOLT-4
  GI50: > 100 µM (inactive)
MCF7
  GI50: > 100 µM (inactive)
M14
  GI50: > 100 µM (inactive)
LOX IMVI
  GI50: > 100 µM (inactive)
SK-OV-3
  GI50: > 100 µM (inactive)
OVCAR-8
  GI50: > 100 µM (inactive)
MDA-MB-231
  GI50: > 100 µM (inactive)
HCT-15
  GI50: > 100 µM
NCI-H460
  GI50: > 100 µM (inactive)
BT-549
  GI50: > 100 µM (inactive)
NCI-H23
  GI50: > 100 µM (inactive)
MDA-N
  GI50: > 100 µM (inactive)
OVCAR-3
  GI50: > 100 µM (inactive)
OVCAR-4
  GI50: > 100 µM (inactive)
EKVX
  GI50: > 100 µM (inactive)
SR
  GI50: > 100 µM (inactive)
K562
  GI50: > 100 µM (inactive)
SK-MEL-5
  GI50: > 100 µM (inactive)
SW-620
  GI50: > 100 µM (inactive)
